# According to paper PMC11999280, “Design and screening of novel endosomal escape compounds that enhance functional delivery of oligonucleotides in vitro” (Molecular Therapy. Nucleic Acids, 2025):
# Legend:
# Format in all cases: cell-based
# [1] = tested on: mCherry-GAL9 expressing 16HBE cells; assay: GAL9 recruitment assay, 16HBE; conditions: calculated mean from >3 independent exp.
# Protocol: (§1) Experiments assessing GAL9 localization as an indicator for endosomal remodeling were performed as previously described[15] using 8× stablemCherry-GAL9 expressing cell lines, SHSY5Y, U2OS, 16HBE, NCI-H358, HuH7, HepG2, HEK293, and HeLa. For mCherry-GAL9 recruitment, 3,000 or 6,500 cells/well (depending upon cell line) were seeded into 384-well CellCarrier Ultra plates 24 h prior to treatment (PerkinElmer, catalog no. 6007558). An Echo 655T acoustic dispenser (Labcyte) was used for EEE dose-response preparation by transferring to the cell plate. At assay endpoints, cells were PBS washed, 4% paraformaldehyde fixed at room temperature […] (VWR, catalog no. 9713.1000), and nuclei stained with PBS +1 μg/mL Hoechst 33342 (Thermo Fisher Scientific, catalog no. H21492).
# (§2) Imaging was performed using a spinning-disk confocal microscope (Yokogawa: CV8000) with a ×20w objective (numerical aperture 1.0). Cells and mCherry-GAL9 structure identification and quantification were done using Columbus image-analysis software (PerkinElmer version 2.9.0). Data processing was done using Spotfire (Tibco version 11.4) and Prism (GraphPad version 9.1.0). Image panels were assembled using the FigureJ plugin for FIJI.[43] All mCherry-GAL9 experiments were performed three times (N = 3) with duplicated wells per treatment (n = 2).
# [2] = tested on: mCherry-GAL9 expressing HEK293 cells; assay: GAL9 recruitment assay, HEK293; conditions: calculated mean from >3 independent exp.
# Protocol: as §1, §2
# [3] = tested on: mCherry-GAL9 expressing HeLa cells; assay: GAL9 recruitment assay, HeLa; conditions: calculated mean from >3 independent exp.
# Protocol: as §1, §2
# [4] = tested on: mCherry-GAL9 expressing HepG2 cells; assay: GAL9 recruitment assay, HepG2; conditions: calculated mean from >3 independent exp.
# Protocol: as §1, §2
# [5] = tested on: mCherry-GAL9 expressing HuH7 cells; assay: GAL9 recruitment assay, HuH7; conditions: calculated mean from >3 independent exp.
# Protocol: as §1, §2
# [6] = tested on: mCherry-GAL9 expressing NCI-H358 cells; assay: GAL9 recruitment assay, NCI-H358; conditions: calculated mean from >3 independent exp.
# Protocol: as §1, §2
# [7] = tested on: mCherry-GAL9 expressing SHSY5Y cells; assay: GAL9 recruitment assay, SHSY5Y; conditions: calculated mean from >3 independent exp.
# Protocol: as §1, §2
# [8] = tested on: mCherry-GAL9 expressing U2OS cells; assay: GAL9 recruitment assay, U2OS; conditions: calculated mean from >3 independent exp.
# Protocol: as §1, §2
# [9] = tested on: HeLa_Luc705 cells (pLuc/705 splice-switching reporter); assay: Functional 705-SSO delivery, luciferase splice-switching assay; conditions: mean from >3 independent experiments
# From the text: Therefore, next, we functionally screened the SSO delivery in the HeLa_Luc705 reporter cell line. HeLa_Luc705 carries a pLuc/705 splice-switching reporter luciferase gene interrupted by a mutated β-globin intron, which creates a preferentially used cryptic 5′ splice site leading to aberrant splicing. Functional SSO delivery masks the cryptic site, redirecting the splicing machinery to the right splicing site, allowing the measurement of luciferase expression (Figure S1).[25]^,[26]^,[27]^,[28] We used SSO transfection with LF2000 as transfection control and the previously published endosomal escape enhancer CMP05 (here, EEE2) as positive control.[15]
# For the assessment of functional SSO therapeutics, a HeLa_Luc705 cell line was grown in DMEM media supplemented with 10% fetal bovine serum (FBS). For most treatments, 10,000 cells/well were seeded in a 96-well plate, 24 h pre-incubated with 1- to 2-μM oligonucleotide, and then treated at the described EEE concentration. At 24 h post-treatment, cells were PBS rinsed and collected for further analysis (treatments and incubation times changed accordingly to the experiment design). Luciferase readout was performed as previously described,[15] using a GloMax 96-well plate microplate luminometer (Promega) immediately after adding 30 μL auto-injected luciferin substrate (Promega Firefly Luciferase Assay System; Thermo Scientific, catalog no. 16174) in a white-walled 96-well plate containing 30 μL 0.1% Triton X-100 (Sigma-Aldrich) cell lysed. Photon exposure time and delay were set to 10 and 2 s after injection. LF2000 was used as the transfection reagent control (Thermo Scientific, catalog no. 11668019). For EEE experiments using 1 or 2 μM SSOs, the control was prepared using lipofection with 100–200 nM SSO; this is to avoid complex induced cell toxicity.
# 705-SSO was purchased from and synthesized by Integrated DNA Technologies. The 705-SSO sequence was previously published, containing 2′-O-methylated bases and only phosphorothioate-saturated backbone linkages were included.[15] The 705-SSO was high-performance liquid chromatography purified, shipped, and stored in IDTE buffer (10 mM Tris, 0.1 mM EDTA).
# [10] = HeLa-Luc705 + 2 µM SSO, EEE 2.5 - 3 µM
compound,measurement,setting,value
COc1nn(C2CCN(C)CC2)cc1Nc1ncc(Cl)c(-n2ccc3c(C#N)cccc32)n1 [EEE17],Gal9 response compared to reference,[1]; EEE 0.31 µM,0.008
same,Gal9 response compared to reference,[1]; EEE 0.62 µM,0.010
same,Gal9 response compared to reference,[1]; EEE 1.25 µM,0.008
same,Gal9 response compared to reference,[1]; EEE 2.5 µM,0.010
same,Gal9 response compared to reference,[1]; EEE 5 µM,0.048
same,Gal9 response compared to reference,[1]; EEE 10 µM,0.488
same,Gal9 response compared to reference,[2]; EEE 0.31 µM,0.023
same,Gal9 response compared to reference,[2]; EEE 0.62 µM,0.022
same,Gal9 response compared to reference,[2]; EEE 1.25 µM,0.019
same,Gal9 response compared to reference,[2]; EEE 2.5 µM,0.019
same,Gal9 response compared to reference,[2]; EEE 5 µM,0.096
same,Gal9 response compared to reference,[2]; EEE 10 µM,0.437
same,Gal9 response compared to reference,[3]; EEE 0.31 µM,0.005
same,Gal9 response compared to reference,[3]; EEE 0.62 µM,0.004
same,Gal9 response compared to reference,[3]; EEE 1.25 µM,0.004
same,Gal9 response compared to reference,[3]; EEE 2.5 µM,0.004
same,Gal9 response compared to reference,[3]; EEE 5 µM,0.012
same,Gal9 response compared to reference,[3]; EEE 10 µM,0.201
same,Gal9 response compared to reference,[4]; EEE 0.31 µM,0.009
same,Gal9 response compared to reference,[4]; EEE 0.62 µM,0.008
same,Gal9 response compared to reference,[4]; EEE 1.25 µM,0.008
same,Gal9 response compared to reference,[4]; EEE 2.5 µM,0.011
same,Gal9 response compared to reference,[4]; EEE 5 µM,0.010
same,Gal9 response compared to reference,[4]; EEE 10 µM,0.030
same,Gal9 response compared to reference,[5]; EEE 0.31 µM,0.007
same,Gal9 response compared to reference,[5]; EEE 0.62 µM,0.007
same,Gal9 response compared to reference,[5]; EEE 1.25 µM,0.010
same,Gal9 response compared to reference,[5]; EEE 2.5 µM,0.017
same,Gal9 response compared to reference,[5]; EEE 5 µM,0.021
same,Gal9 response compared to reference,[5]; EEE 10 µM,0.132
same,Gal9 response compared to reference,[6]; EEE 0.31 µM,0.016
same,Gal9 response compared to reference,[6]; EEE 0.62 µM,0.019
same,Gal9 response compared to reference,[6]; EEE 1.25 µM,0.014
same,Gal9 response compared to reference,[6]; EEE 2.5 µM,0.018
same,Gal9 response compared to reference,[6]; EEE 5 µM,0.028
same,Gal9 response compared to reference,[6]; EEE 10 µM,0.303
same,Gal9 response compared to reference,[7]; EEE 0.31 µM,0.014
same,Gal9 response compared to reference,[7]; EEE 0.62 µM,0.013
same,Gal9 response compared to reference,[7]; EEE 1.25 µM,0.012
same,Gal9 response compared to reference,[7]; EEE 2.5 µM,0.014
same,Gal9 response compared to reference,[7]; EEE 5 µM,0.176
same,Gal9 response compared to reference,[7]; EEE 10 µM,0.610
same,Gal9 response compared to reference,[8]; EEE 0.31 µM,0.012
same,Gal9 response compared to reference,[8]; EEE 0.62 µM,0.011
same,Gal9 response compared to reference,[8]; EEE 1.25 µM,0.013
same,Gal9 response compared to reference,[8]; EEE 2.5 µM,0.015
same,Gal9 response compared to reference,[8]; EEE 5 µM,0.021
same,Gal9 response compared to reference,[8]; EEE 10 µM,0.155
same,Luciferase expression compared to reference,[9]; [10],0.752
COc1nn(C2CCNCC2C)cc1Nc1ncc(F)c(-n2ccc3c(C#N)cccc32)n1 (centres unmarked) [EEE35],Luciferase expression compared to reference,"[9]; HeLa-Luc705 + 1 µM SSO, EEE 0.5 µM",1.095
same,Luciferase expression compared to reference,"[9]; HeLa-Luc705 + 1 µM SSO, EEE 2 µM",1.804
same,Luciferase expression compared to reference,"[9]; HeLa-Luc705 + 1 µM SSO, EEE 4 µM",4.870
same,Luciferase expression compared to reference,"[9]; HeLa-Luc705 + 1 µM SSO, EEE 5 µM",9.588
same,Luciferase expression compared to reference,"[9]; HeLa-Luc705 + 1 µM SSO, EEE 1-1.25 µM",1.101
same,Luciferase expression compared to reference,"[9]; HeLa-Luc705 + 1 µM SSO, EEE 2.5 - 3 µM",2.812
COc1nn(C2CCN(C(C)C)CC2)cc1Nc1ncc(F)c(-n2ccc3c(C#N)cccc32)n1 [EEE9],Gal9 response compared to reference,[1]; EEE 0.31 µM,0.010
same,Gal9 response compared to reference,[1]; EEE 0.62 µM,0.013
same,Gal9 response compared to reference,[1]; EEE 1.25 µM,0.042
same,Gal9 response compared to reference,[1]; EEE 2.5 µM,0.209
same,Gal9 response compared to reference,[1]; EEE 5 µM,0.533
same,Gal9 response compared to reference,[1]; EEE 10 µM,0.691
same,Gal9 response compared to reference,[2]; EEE 0.31 µM,0.028
same,Gal9 response compared to reference,[2]; EEE 0.62 µM,0.032
same,Gal9 response compared to reference,[2]; EEE 1.25 µM,0.071
same,Gal9 response compared to reference,[2]; EEE 2.5 µM,0.396
same,Gal9 response compared to reference,[2]; EEE 5 µM,0.712
same,Gal9 response compared to reference,[2]; EEE 10 µM,0.639
same,Gal9 response compared to reference,[3]; EEE 0.31 µM,0.005
same,Gal9 response compared to reference,[3]; EEE 0.62 µM,0.005
same,Gal9 response compared to reference,[3]; EEE 1.25 µM,0.007
same,Gal9 response compared to reference,[3]; EEE 2.5 µM,0.110
same,Gal9 response compared to reference,[3]; EEE 5 µM,0.393
same,Gal9 response compared to reference,[3]; EEE 10 µM,0.495
same,Gal9 response compared to reference,[4]; EEE 0.31 µM,0.009
same,Gal9 response compared to reference,[4]; EEE 0.62 µM,0.009
same,Gal9 response compared to reference,[4]; EEE 1.25 µM,0.007
same,Gal9 response compared to reference,[4]; EEE 2.5 µM,0.011
same,Gal9 response compared to reference,[4]; EEE 5 µM,0.060
same,Gal9 response compared to reference,[4]; EEE 10 µM,0.564
same,Gal9 response compared to reference,[5]; EEE 0.31 µM,0.012
same,Gal9 response compared to reference,[5]; EEE 0.62 µM,0.009
same,Gal9 response compared to reference,[5]; EEE 1.25 µM,0.019
same,Gal9 response compared to reference,[5]; EEE 2.5 µM,0.083
same,Gal9 response compared to reference,[5]; EEE 5 µM,0.220
same,Gal9 response compared to reference,[5]; EEE 10 µM,0.366
same,Gal9 response compared to reference,[6]; EEE 0.31 µM,0.018
same,Gal9 response compared to reference,[6]; EEE 0.62 µM,0.020
same,Gal9 response compared to reference,[6]; EEE 1.25 µM,0.031
same,Gal9 response compared to reference,[6]; EEE 2.5 µM,0.212
same,Gal9 response compared to reference,[6]; EEE 5 µM,0.569
same,Gal9 response compared to reference,[6]; EEE 10 µM,0.627
same,Gal9 response compared to reference,[7]; EEE 0.31 µM,0.013
same,Gal9 response compared to reference,[7]; EEE 0.62 µM,0.016
same,Gal9 response compared to reference,[7]; EEE 1.25 µM,0.117
same,Gal9 response compared to reference,[7]; EEE 2.5 µM,0.756
same,Gal9 response compared to reference,[7]; EEE 5 µM,0.780
same,Gal9 response compared to reference,[7]; EEE 10 µM,0.696
same,Gal9 response compared to reference,[8]; EEE 0.31 µM,0.012
same,Gal9 response compared to reference,[8]; EEE 0.62 µM,0.013
same,Gal9 response compared to reference,[8]; EEE 1.25 µM,0.018
same,Gal9 response compared to reference,[8]; EEE 2.5 µM,0.055
same,Gal9 response compared to reference,[8]; EEE 5 µM,0.254
same,Gal9 response compared to reference,[8]; EEE 10 µM,0.502
same,Luciferase expression compared to reference,[9]; [10],0.692
